Test results from patent publication US20260137706A1, “METHODS OF TREATING INFLAMMATORY DISEASES” (INTERLINE THERAPEUTICS, INC., priority 2023, published 2026).

Assays:
[1] = tested on: NF-κB pathway (SEAP) in THP1-Dual cells; assay: THP-1 Dual cell SEAP assay (L18-MDP stimulated); type: cell-based; conditions: Homo sapiens, THP1-Dual, read-out: NF-κB THP1 IC50 bin
Procedure, shortened: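 THP1-Dual cells (~25,000/well) were preincubated 30 min with serially diluted compounds, then stimulated with 10 ng/mL L18-MDP (final) for 20-24 h at 37 °C. Supernatant SEAP was read with QUANTI-Blue at OD 620-655 nm after 2 h. IC50 came from non-linear fits of % inhibition versus DMSO/L18-MDP controls after media-blank subtraction.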

[2] = biological target: T1, binding of His-XIAP(BIR2)-avi fusion protein to GST-RIPK2 fusion protein (RIPK2/XIAP) (Homo sapiens, UniProt O43353); assay: RIPK2-XIAP binding competition PPI assay (TR-FRET); conditions: RIPK2/XIAP binding competition PPI assay; for Emax: Amax, read-out: PPI Amax bin; for IC50: read-out: PPI IC50 bin
T1 construct: made in house; host or cells: baculovirus infected Sf9 cells
T1 sequence (O43353 1-310 limits assumed): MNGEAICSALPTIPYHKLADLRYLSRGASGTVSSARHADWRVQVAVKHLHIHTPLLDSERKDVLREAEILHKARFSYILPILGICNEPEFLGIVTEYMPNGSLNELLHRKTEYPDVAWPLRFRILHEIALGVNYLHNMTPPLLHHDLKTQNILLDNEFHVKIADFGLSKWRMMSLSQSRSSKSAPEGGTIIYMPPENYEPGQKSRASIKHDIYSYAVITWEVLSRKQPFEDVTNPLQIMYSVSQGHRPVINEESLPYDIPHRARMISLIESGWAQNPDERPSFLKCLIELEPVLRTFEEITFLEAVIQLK
Procedure, shortened: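 Compounds (in DMSO, 100-fold stock) incubated 120 min at 23 °C with 1 nM GST-RIPK2 (aa 1-310) and 25 nM His-XIAP(BIR2 aa 152-231)-avi, plus anti-His-XL665 and anti-GST-Tb, in pH 7.5 Tris buffer. Read-out: 665/520 nm emission ratio. Normalized to no-inhibitor (0%) and 50 nM GSK583 (−100%); Amax binned A–D.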

[3] = biological target: T2, GST-RIPK2 fusion protein (human RIPK2, amino acids 1-310) (Homo sapiens, UniProt O43353); assay: RIPK2 binding competition assay (TR-FRET, Tracer 199 displacement); conditions: 10 nM Tracer 199, 1 nM GST-RIPK2, read-out: RIPK2 IC50
T2 construct: made in house; host or cells: baculovirus infected Sf9 cells
T2 sequence (O43353 1-310): as the sequence (O43353 1-310 limits assumed) above
Procedure, shortened: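 GST-RIPK2 (human aa 1-310, Sf9-expressed; final 1 nM) with Tracer 199 (final 10 nM) and Tb-anti-GST (final 0.5 nM) in Tris pH 7.5 buffer, 45 min at 22 °C. TR-FRET 665/620 nm ratio after 337 nm excitation; normalized to no-inhibitor (0%) and no-protein (−100%), giving IC50.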

Structure (SMILES)	IC50 [1]	Emax [2]	IC50 [2]	IC50 [3]
CC(C)(C)S(=O)(=O)c1cn2c(-c3cc(Cl)c(N)nc3F)cnc2cc1CCCO [Example 257, 3-(3-(6-amino-5-chloro-2-fluoropyridin-3-yl)-6-(tert-butylsulfonyl)imidazo [1,2-a]pyridin-7-yl)propan-1-ol]	250 to 1000 nM	> 80%	2.5 to 20 nM	2.5 to 20 nM
C[C@H](CO)Oc1cc2ncc(-c3cc(Cl)c(N)nc3F)n2cc1S(=O)(=O)C(C)(C)C [Example 258, (R)-2-((3-(6-amino-5-chloro-2-fluoropyridin-3-yl)-6-(tert-butylsulfonyl)imidazo [1,2-a]pyridin-7-yl)oxy)propan-1-ol]	250 to 1000 nM	> 80%	2.5 to 20 nM	2.5 to 20 nM
C[C@@H](O)COc1cn2ncc(-c3cc(F)c(N)nc3F)c2cc1S(=O)(=O)C(C)(C)C [Example 259, (R)-1-((3-(6-amino-2,5-difluoropyridin-3-yl)-5-(tert-butylsulfonyl)pyrazolo [1,5-a]pyridin-6-yl)oxy)propan-2-ol]	50 to 250 nM	> 80%	1 to 2.5 nM	2.5 to 20 nM
COc1cc2ncc(-c3cc(F)c(OC)c(NS(=O)(=O)c4cnn(C)c4)c3)n2cc1C1(F)CCNCC1 [Example 276, N-(3-fluoro-5-(6-(4-fluoropiperidin-4-yl)-7-methoxyimidazo[1,2-a]pyridin-3-yl)-2-methoxyphenyl)-1-methyl-1H-pyrazole-4-sulfonamide]	50 to 250 nM	> 80%	< 1 nM	1 to 2.5 nM
CC(C)(C)S(=O)(=O)c1cn2c(-c3cnc4[nH]ccc4n3)cnc2cc1OCCO [Example 277, 2-((6-(tert-butylsulfonyl)-3-(5H-pyrrolo[2,3-b]pyrazin-2-yl)imidazo[1,2-a]pyridin-7-yl)oxy)ethan-1-ol]	250 to 1000 nM	< 30%	> 20 nM	2.5 to 20 nM
CC(C)(C)S(=O)(=O)c1cn2c(-c3ccc4[nH]ccc4n3)cnc2cc1OCCO [Example 278, 2-((6-(tert-butylsulfonyl)-3-(1H-pyrrolo[3,2-b]pyridin-5-yl)imidazo[1,2-a]pyridin-7-yl)oxy)ethan-1-ol]	> 1000 nM	30 to 55%	2.5 to 20 nM	> 20 nM
COc1cc2ncc(-c3cc(F)c(OC)c(NS(=O)(=O)c4cn(C)nc4C)c3)n2cc1S(=O)(=O)C(C)(C)C [Example 279, N-(5-(6-(tert-butylsulfonyl)-7-methoxyimidazo[1,2-a]pyridin-3-yl)-3-fluoro-2-methoxyphenyl)-1,3-dimethyl-1H-pyrazole-4-sulfonamide]	< 50 nM	> 80%	< 1 nM	< 1 nM
COc1cc2ncc(-c3cc(F)c(OC)c(NS(=O)(=O)c4cnn(C)c4C)c3)n2cc1S(=O)(=O)C(C)(C)C [Example 280, N-(5-(6-(tert-butylsulfonyl)-7-methoxyimidazo[1,2-a]pyridin-3-yl)-3-fluoro-2-methoxyphenyl)-1,5-dimethyl-1H-pyrazole-4-sulfonamide]	50 to 250 nM	> 80%	1 to 2.5 nM	1 to 2.5 nM
COc1cc2ncc(-c3cc(F)c(OC)c(NS(=O)(=O)c4ccccc4)c3)n2cc1S(=O)(=O)C(C)(C)C [Example 281, N-(5-(6-(tert-butylsulfonyl)-7-methoxyimidazo[1,2-a]pyridin-3-yl)-3-fluoro-2-methoxyphenyl)benzenes ulfonamide]	< 50 nM	> 80%	< 1 nM	< 1 nM
COc1cc2ncc(-c3cc(F)c(OC)c(NC(=O)c4cnn(C)c4)c3)n2cc1S(=O)(=O)C(C)(C)C [Example 296, N-(5-(6-(tert-butylsulfonyl)-7-methoxyimidazo[1,2-a]pyridin-3-yl)-3-fluoro-2-methoxyphenyl)-1-methyl-1H-pyrazole-4-carboxamide]	> 1000 nM	> 80%	> 20 nM	> 20 nM
COc1cc2ncc(-c3cc(F)c(OC)c(NC(=O)Cc4cnn(C)c4)c3)n2cc1S(=O)(=O)C(C)(C)C [Example 297, N-(5-(6-(tert-butylsulfonyl)-7-methoxyimidazo[1,2-a]pyridin-3-yl)-3-fluoro-2-methoxyphenyl)-2-(1-methyl-1H-pyrazol-4-yl)acetamide]	50 to 250 nM	> 80%	1 to 2.5 nM	1 to 2.5 nM
COc1cc2ncc(-c3cc(F)c(OC)c(NC(=O)Cc4ccn(C)n4)c3)n2cc1S(=O)(=O)C(C)(C)C [Example 298, N-(5-(6-(tert-butylsulfonyl)-7-methoxyimidazo[1,2-a]pyridin-3-yl)-3-fluoro-2-methoxyphenyl)-2-(1-methyl-1H-pyrazol-3-yl)acetamide]	250 to 1000 nM	55 to 80%	2.5 to 20 nM	2.5 to 20 nM
CC(C)(C)S(=O)(=O)c1cn2c(-c3cc(Cl)c(N)nc3F)cnc2cc1OCC(=O)O [Example 299, 2-((3-(6-amino-5-chloro-2-fluoropyridin-3-yl)-6-(tert-butylsulfonyl)imidazo[1,2-a]pyridin-7-yl)oxy)acetic acid]	> 1000 nM	> 80%	> 20 nM	> 20 nM
COc1cc2ncc(-c3cc(F)c(OC)c(NS(=O)(=O)c4cnn(CCO)c4)c3)n2cc1C(F)(F)F [Example 304, N-(3-fluoro-2-methoxy-5-(7-methoxy-6-(trifluoromethyl)imidazo[1,2-a]pyridin-3-yl)phenyl)-1-(2-hydroxyethyl)-1H-pyrazole-4-sulfonamide]	> 1000 nM	> 80%	2.5 to 20 nM	2.5 to 20 nM
